Experimental data taken from article PMC11352108, “Anti-Biofilm and Anti-Inflammatory Properties of the Truncated Analogs of the Scorpion Venom-Derived Peptide IsCT against Pseudomonas aeruginosa” (Antibiotics, 2024).
Where “and” joins values, the source holds several entries; their conditions need not be identical. Identical values can stand only once. Where no end group is shown, it is not given here.

Experiments:
[1] = tested on: P. aeruginosa PAO1 biofilms; experiment: Biofilm susceptibility assay (crystal violet); assay type: cell-based, Pseudomonas aeruginosa; details: 150 μM, 24 h, 37 °C, 10^6 CFU/mL, OD 550 nm, compared with untreated control
Description: The effect of the truncated IsCT analogs on biofilms of P. aeruginosa was assessed using a method that was described previously. Briefly, 100 μL of the test peptides (final concentration, 150 μM) was added to each well of a 96-well microtiter plate (Nunc^TM, Roskilde, Denmark). Then, an aliquot of P. aeruginosa PAO1 culture was added to each well to obtain a final concentration of 10^6 CFU/mL. The bacterial culture alone was included as an untreated control. Following a 24-h incubation at 37 °C, unattached planktonic cells were discarded, and the wells were carefully washed twice with PBS with a pH of 7.4. Thereafter, biofilm biomasses were quantified by 0.1% crystal violet staining. After excess stains were discarded, the wells were washed with PBS pH 7.4 and left to air dry for 2 h at 37 °C. The biofilm biomass was subsequently dissolved by the addition of 30% acetic acid, and the plates were spectrophotometrically read at 550 nm using a BioTek Synergy HT microplate reader.

[2] = tested on: IL-6 production in P. aeruginosa LPS-stimulated RAW 264.7 macrophages; experiment: IL-6 measurement (sandwich ELISA); assay type: cell-based, murine; details: 48 h; for IL-6 (pg/mL), Exp.1: replicate Exp.1; for IL-6 (pg/mL), Mean: mean of 2 experiments, LPS alone 4081.029; for IL-6 (pg/mL), Exp.2: replicate Exp.2
Description: RAW 264.7 cells (3.5 × 10^5) were stimulated with P. aeruginosa lipopolysaccharide (100 ng/mL; Sigma, St. Louis, MO, USA) in the presence or absence of the IsCT-Δ6-8 peptide (37.5–150 μM, final concentration). After incubation at 37 °C under 5% CO2 for 48 h, supernatants were collected. The levels of nitrite (a stable breakdown of NO) were then determined using the Griess reagent system (Promega, Madison, Wisconsin, USA). The IL-6 levels in culture supernatant were quantified with the BioLegend ELISA MAXTM Deluxe Set according to the manufacturer’s protocols.

[3] = peptide 37.5 µM with LPS 100 ng/mL
[4] = peptide 75 µM with LPS 100 ng/mL
[5] = peptide 150 µM with LPS 100 ng/mL

Sequence: ILGKIIKSLF [IsCT-Δ6-8]
- Decrease in P. aeruginosa biofilm biomass [1]: 33.12% and 33%
- Effect on LPS-induced IL-6 elevation (in words) ([2]; 37.5–150 μM, especially at 150 μM (p < 0.05 vs LPS-stimulated)): reduced
- IL-6 (pg/mL), Exp.1 ([2]; peptide 37.5 µM with LPS 100 ng/mL, 37 °C): 4036.912 pg/mL
- IL-6 (pg/mL), Mean [2, 3]: 3742.794 pg/mL
- IL-6 (pg/mL), Exp.2 [2, 3]: 3448.676 pg/mL
- IL-6 (pg/mL), Mean [2, 4]: 3664.363 pg/mL
- IL-6 (pg/mL), Exp.1 [2, 4]: 3953.578 pg/mL
- IL-6 (pg/mL), Exp.2 [2, 4]: 3375.147 pg/mL
- IL-6 (pg/mL), Mean [2, 5]: 3304.069 pg/mL
- IL-6 (pg/mL), Exp.1 [2, 5]: 3514.853 pg/mL
- IL-6 (pg/mL), Exp.2 [2, 5]: 3093.284 pg/mL
